Assay results as given in patent publication US20260034112A1, “MULTI-CYCLIC IRAK1 AND IRAK4 INHIBITING COMPOUNDS AND USES THEREOF” (CHILDREN'S HOSPITAL MEDICAL CENTER, priority 2022, published 2026).
Like-named read-outs stand apart in the source and are kept apart here.

System: THP1 cells
Type: cell-based, human
Conditions: PF-06650833 vs DMSO in THP1 cells

`CC[C@@H]1[C@H](F)C(=O)N[C@@H]1COc1nccc2cc(C(N)=O)c(OC)cc12` [PF-06650833, Zimlovisertib] was tested, and the “Log(FC)” value (gene ACVR1C) was −0.6723, the “Log(FC)” value (gene ADPGK-AS1) was −0.6683 and the “Log(FC)” value (gene ALDH1A3) was −0.6705. The “Log(FC)” value (gene APOBR) was −0.6497, the “Log(FC)” value (gene APOC1) was −0.67 and the “Log(FC)” value (gene AQP3) was −0.6432. The “Log(FC)” value (gene ARHGAP25) was −0.5895, the “Log(FC)” value (gene ARRDC3-AS1) was −0.5996 and the “Log(FC)” value (gene ASGR2) was −0.631. For the same compound, the “Log(FC)” value (gene BMP8B) was −0.6206, the “Log(FC)” value (gene BPI) was −0.6416 and the “Log(FC)” value (gene C1QL4) was −0.5987. The “Log(FC)” value (gene C1orf226) was −0.604, the “Log(FC)” value (gene C1orf228) was −0.634 and the “Log(FC)” value (gene C3) was −0.6607. For the same compound, the “Log(FC)” value (gene C19orf35) was −0.675, the “Log(FC)” value (gene C19orf59) was −0.6476 and the “Log(FC)” value (gene C20orf197) was −0.6914. The “Log(FC)” value (gene CACNA2D3) was −0.6049, the “Log(FC)” value (gene CALHM2) was −0.6575 and the “Log(FC)” value (gene CCDC78) was −0.6022. The “Log(FC)” value (gene CCL23) was −0.6739, the “Log(FC)” value (gene CD300LB) was −0.5972 and the “Log(FC)” value (gene CENPH) was −0.6701. The “Log(FC)” value (gene DGKG) was −0.6202, the “Log(FC)” value (gene EVI2B) was −0.6362 and the “Log(FC)” value (gene FAM111B) was −0.6646. The “Log(FC)” value (gene FAM161B) was −0.6003, the “Log(FC)” value (gene FAS) was −0.6791 and the “Log(FC)” value (gene FAT4) was −0.6913. The “Log(FC)” value (gene FMO5) was −0.639, the “Log(FC)” value (gene FOS) was −0.5974 and the “Log(FC)” value (gene FOSL1) was −0.6175. For the same compound, the “Log(FC)” value (gene GAPT) was −0.6025, the “Log(FC)” value (gene GIPC3) was −0.6076 and the “Log(FC)” value (gene GNG12) was −0.6632. For the same compound, the “Log(FC)” value (gene GPR35) was −0.6621, the “Log(FC)” value (gene HSPA1L) was −0.6007 and the “Log(FC)” value (gene HYDIN2) was −0.6113. The “Log(FC)” value (gene IL1R1) was −0.6855, the “Log(FC)” value (gene IL16) was −0.667 and the “Log(FC)” value (gene IQGAP2) was −0.5919. For the same compound, the “Log(FC)” value (gene KCNA3) was −0.6759, the “Log(FC)” value (gene KIF21B) was −0.6912 and the “Log(FC)” value (gene KLHL30) was −0.6632. For the same compound, the “Log(FC)” value (gene KREMEN2) was −0.6258, the “Log(FC)” value (gene LDOC1) was −0.6494 and the “Log(FC)” value (gene LHFPL2) was −0.6019. The “Log(FC)” value (gene LINC01094) was −0.6762, the “Log(FC)” value (gene LOC81691) was −0.6095 and the “Log(FC)” value (gene LOC339862) was −0.6552. The “Log(FC)” value (gene LOC100093631) was −0.631, the “Log(FC)” value (gene LOC100507642) was −0.6508 and the “Log(FC)” value (gene LOC101927841) was −0.6312. The “Log(FC)” value (gene LOC101929119) was −0.6138, the “Log(FC)” value (gene LOC101929545) was −0.5904 and the “Log(FC)” value (gene LOC102723883) was −0.5967. The “Log(FC)” value (gene MPEG1) was −0.6879, the “Log(FC)” value (gene MPO) was −0.6316 and the “Log(FC)” value (gene MPZ) was −0.5945. For the same compound, the “Log(FC)” value (gene MTMR11) was −0.6705, the “Log(FC)” value (gene MUC19) was −0.6358 and the “Log(FC)” value (gene NCALD) was −0.6. The “Log(FC)” value (gene NHLRC3) was −0.66, the “Log(FC)” value (gene NHSL2) was −0.639 and the “Log(FC)” value (gene NMNAT2) was −0.6786. The “Log(FC)” value (gene PAX8) was −0.674, the “Log(FC)” value (gene PCED1B-AS1) was −0.6355 and the “Log(FC)” value (gene PDCD4) was −0.6069. For the same compound, the “Log(FC)” value (gene PODNL1) was −0.6661, the “Log(FC)” value (gene PRTN3) was −0.6776 and the “Log(FC)” value (gene PSTPIP1) was −0.6238. For the same compound, the “Log(FC)” value (gene RGS3) was −0.6231, the “Log(FC)” value (gene RPSAP9) was −0.6104 and the “Log(FC)” value (gene RSPO1) was −0.6269. The “Log(FC)” value (gene S1PR3) was −0.6476, the “Log(FC)” value (gene S1PR5) was −0.6503 and the “Log(FC)” value (gene SCIMP) was −0.6308. The “Log(FC)” value (gene SERPINA1) was −0.615, the “Log(FC)” value (gene SETBP1) was −0.6709 and the “Log(FC)” value (gene SIM1) was −0.6107. For the same compound, the “Log(FC)” value (gene SLC2A3) was −0.6056, the “Log(FC)” value (gene SLC6A11) was −0.6327 and the “Log(FC)” value (gene SLC9A7) was −0.6539. The “Log(FC)” value (gene SNORA73A) was −0.6228, the “Log(FC)” value (gene SNX10) was −0.6217 and the “Log(FC)” value (gene SWT1) was −0.6012. The “Log(FC)” value (gene SYN3) was −0.6041, the “Log(FC)” value (gene SYTL1) was −0.5922 and the “Log(FC)” value (gene TACC2) was −0.6004. For the same compound, the “Log(FC)” value (gene THBS4) was −0.6785, the “Log(FC)” value (gene TLR1) was −0.6365 and the “Log(FC)” value (gene TMEM45A) was −0.5913. For the same compound, the “Log(FC)” value (gene TMEM238) was −0.6139, the “Log(FC)” value (gene TNFSF10) was −0.6794 and the “Log(FC)” value (gene TNS1) was −0.6915. For the same compound, the “Log(FC)” value (gene TREM1) was −0.6699, the “Log(FC)” value (gene TRIM72) was −0.6733 and the “Log(FC)” value (gene ZNF630) was −0.6307. The “Log(FC)” value (gene ZNF836) was −0.606.
